# Assay results as given in patent US20080014133A1, “Extraction Of Radionuclides By Crown Ether-Containing Extractants” (priority 2004, published 2008).
# Columns and labels:
# Type in all cases: physicochemical
# [1] = Influence of nitric acid concentration on extraction of sodium; settings: crown ether about 0.1 mol/l in Fluoroheptanol n3
# Procedure: Selected for study were extractants containing crown ethers: DB18C6, DTBDB18C6, DCH18C6 or DB21C7 in a concentration of about 0.1 mol/l in Fluoroheptanol n3. Used as experimental solutions were aqueous solutions of sodium nitrate whose concentration was determined using radiometric techniques on previously added aliquot of a sodium-22 isotope.
# [2] = Extraction of strontium in a dynamic countercurrent mode (7.1)
# Source text: A starting aqueous solution whose composition and concentration of the components are given in Table 3 for a solution No.1 was contacted with the extractant according to the invention containing 0.05 mole/l of DCH18C6 in a solvent containing 20% by volume of synthanol and 80% by volume of Fluoroheptanol n3 in a continuous countercurrent process on a facility with extractors such as “mixer-settler” devices with impulse agitation and phase transportation. The extraction included eight steps of extraction, two washing steps, eight re-extraction steps and two steps of regeneration of the reused extractant.
# When running the facility, radiometric monitoring devices were used to control the concentration of strontium in the refined products, re-extracts and reclaims, as well as the concentration of the crown ethers in the extracted products.
# [3] = Interaction of extractants with sodium (organic/aqueous phase concentration)
# Procedure: The characteristics of the extractants according to the invention in the process of extraction of sodium from acidic aqueous solutions of high-level waste were determined. For this purpose, the concentration of sodium in the organic and aqueous phases containing extractants based on DTBDB18C6 or DCH18C6 or DB21C7 in a concentration about of 0.05 mol/l in fluoroheptanol n3 were analyzed.
# [4] = Extraction of cations of different metals (Table 8)
# Source text: A process of extraction of cations of different metals from aqueous nitrate solutions was studied by processing them using the extractants according to the invention containing DCH18C6 or DB21C7 in an organic solvent comprising: Fluoroheptanol n3—80% by volume and synthanol—20% by volume at a concentration of crown ethers of 0.05 mol/l and a content of nitric acid about of 190 g/l. For comparison, the data were used given in a patent specification (U.S. Pat. No. 4,749,518, A) describing similar tests of extractants containing Crown XVI or Crown XVII with a cation exchanger—dinanylnaphthalene sulfonic acid in a matrix solution containing tributyl phosphate and kerosene.
# The solutions were contacted with the extractants according to the invention in temperature-controlled ([…]) separating funnels for 5 minutes at a ratio of organic and aqueous phases of 1:1. After settling within 60 minutes, the phases were separated, and the aqueous phase was analyzed to determine the concentration of the elements.
# [5] = Solubility of crown ethers in water and nitric acid from extractants with different organic solvents
# Procedure: The study of solubility of extractants according to the invention and the extractants containing similar crown ethers in other solvents in aqueous and nitrate solutions was carried out.
# Taken for the tests were crown ethers containing DCH18C6 or DB21C7 in a concentration of about 0.1 mole/l in different organic solvents. The extractants were mixed with aqueous or nitrate solutions with a content of nitric acid 3 mole/l in a closed thermostatically controlled chamber for 3 hours. Then the obtained water-organic systems were separated. The aqueous part after settling down and filtering was analyzed for a content of crown ethers using photometric measurements.
# [6] = Radiation resistance of the extractants (gamma irradiation); settings: Sr
# Source text: The radiation resistance of the extractants according to the invention used for extraction radionuclides of strontium or cesium was studied. For this purpose, reaction mixtures consisting of biphase water-organic systems containing extractants based on crown ethers DCH18C6 or DB21C7 in Fluoroheptanol n3 and aqueous nitrate waste solutions, and, for comparison, reaction mixtures containing extractants based on crown ethers Crown XVI or Crown XVII with a cation exchanger—dinanylnaphthalene of sulfonic acids in a matrix solution comprising tributyl phosphate and kerosene were irradiated with gamma-rays […] in a temperature-controlled cell of stainless steel with continuous agitation by bubbling. The maximum integrated radiation dose was equal to 285.3 kGr. The extractant samples were tested and the extraction characteristics were measured before and after the irradiation to determine a decrease of the distribution ratio DMe due to the radiological destruction of extractant components.
# [7] = initial 1.0 g/l, same extractant conditions
# [8] = initial 10.0 g/l, same extractant conditions
compound,measurement,setting,value
"C1CCC2OCCOCCOC3CCCCC3OCCOCCOC2C1 (stereo not shown) [DCH18C6, bicyclohexane-18-crown-6]",Distribution ratios of sodium,[1]; nitric acid 0 mol/l,0.1
same,Distribution ratios of sodium,[1]; nitric acid 0.1 mol/l,0.12
same,Distribution ratios of sodium,[1]; nitric acid 0.5 mol/l,0.12
same,Distribution ratios of sodium,[1]; nitric acid 1.0 mol/l,0.05
same,Distribution ratios of sodium,[1]; nitric acid 3.0 mol/l,0.02
same,Distribution ratios of sodium,[1]; nitric acid 5.0 mol/l,0.01
same,"Contents of strontium in the extracted products, in percent of the feedstock",[2]; Re-extract,99.55% of the feedstock
same,"Contents of strontium in the extracted products, in percent of the feedstock",[2]; Reclaim,<0.1% of the feedstock
same,"Contents of strontium in the extracted products, in percent of the feedstock","[2]; Refined product, 0.05 mol/l DCH18C6, Synthanol 20% / Fluoroheptanol n3 80%, solution No.1",0.35% of the feedstock
same,Average concentrating factor,[2]; dynamic mode 7.1,about 1.7 times
same,Efficiency of the extraction of strontium,[2]; dynamic mode 7.1,exceeds 99%
same,Sodium concentration in the organic phase,"[3]; sodium in the aqueous phase 0.01 mol/l, crown ether about 0.05 mol/l in fluoroheptanol n3",0 mol/L
same,Sodium concentration in the organic phase,"[3]; sodium in the aqueous phase 0.1 mol/l, crown ether about 0.05 mol/l",0.003 mol/L
same,Sodium concentration in the organic phase,"[3]; sodium in the aqueous phase 0.2 mol/l, crown ether about 0.05 mol/l",0.005 mol/L
same,Sodium concentration in the organic phase,"[3]; sodium in the aqueous phase 0.4 mol/l, crown ether about 0.05 mol/l",0.009 mol/L
same,"Distribution ratios, Pb","[4]; initial 0.05 g/l, same extractant conditions",4.2
same,"Distribution ratios, Mn","[4]; initial 0.4 g/l, same extractant conditions",0.06
same,"Distribution ratios, Ru","[4]; initial 0.75 g/l, same extractant conditions",0.16
same,"Distribution ratios, Ba","[4]; initial 1.0 g/l, crown ether 0.05 mol/l in Fluoroheptanol n3 80% / synthanol 20%, nitric acid about 190 g/l",2.03
same,"Distribution ratios, Cr",[4]; [7],0.02
same,"Distribution ratios, Cs",[4]; [7],0.02
same,"Distribution ratios, Sr",[4]; [7],3.6
same,"Distribution ratios, Zr",[4]; [7],0.018
same,"Distribution ratios, Ca","[4]; initial 2.0 g/l, same extractant conditions",0.12
same,"Distribution ratios, Ni","[4]; initial 4.0 g/l, same extractant conditions",0.023
same,"Distribution ratios, Al","[4]; initial 6.0 g/l, crown ether 0.05 mol/l in Fluoroheptanol n3 80% / synthanol 20%, nitric acid about 190 g/l",0.03
same,"Distribution ratios, Fe",[4]; [8],0.017
same,"Distribution ratios, Na",[4]; [8],0.01
same,"Distribution ratios, Rare-earth","[4]; initial 25.0 g/l, same extractant conditions",0.04
same,Concentration of crown ether in an aqueous phase,"[5]; solvent 2,2-dihydrotrifluoroethyl pentafluoroethyl ether, H2O",0.301 mol/l × 10^−3
same,Concentration of crown ether in an aqueous phase,"[5]; solvent 2,2-dihydrotrifluoroethyl pentafluoroethyl ether, HNO3 3 mole/l",0.344 mol/l × 10^−3
same,Concentration of crown ether in an aqueous phase,"[5]; solvent Fluoroheptanol n3, H2O",<0.027 mol/l × 10^−3
same,Concentration of crown ether in an aqueous phase,"[5]; solvent Fluoroheptanol n3, HNO3 3 mole/l",0.086 mol/l × 10^−3
same,Concentration of crown ether in an aqueous phase,"[5]; solvent Tetrachloroethane, H2O",0.258 mol/l × 10^−3
same,Concentration of crown ether in an aqueous phase,"[5]; solvent Tetrachloroethane, HNO3 3 mole/l, crown ether about 0.1 mole/l, 3 hours",0.139 mol/l × 10^−3
same,Concentration of crown ether in an aqueous phase,"[5]; solvent Tetrachloropropane, H2O",0.968 mol/l × 10^−3
same,Concentration of crown ether in an aqueous phase,"[5]; solvent Tetrachloropropane, HNO3 3 mole/l",1.72 mol/l × 10^−3
same,Concentration of crown ether in an aqueous phase,"[5]; solvent Trichlorethylene, H2O",0.65 mol/l × 10^−3
same,Concentration of crown ether in an aqueous phase,"[5]; solvent Trichlorethylene, HNO3 3 mole/l",0.94 mol/l × 10^−3
same,Concentration of crown ether in an aqueous phase,"[5]; solvent Trichlorobenzene, H2O",1.142 mol/l × 10^−3
same,Concentration of crown ether in an aqueous phase,"[5]; solvent Trichlorobenzene, HNO3 3 mole/l",2.016 mol/l × 10^−3
same,Distribution ratio before irradiation,[6],3.6
same,Distribution ratio DMe after irradiation,[6]; dose 100.0 kGr (10^7 rad),3.4
same,"Distribution ratio after irradiation, % of original",[6]; dose 100.0 kGr (10^7 rad),94.4%
same,Distribution ratio DMe after irradiation,[6]; dose 285.3 kGr,3.0
same,"Distribution ratio after irradiation, % of original",[6]; dose 285.3 kGr,83.3%
